Data reported in PubChem BioAssay (NCI).
Where “and” joins values, the source holds several entries; their conditions need not be identical. Equal values may be shown once.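 These data come from cells grown in 96-well plates and exposed to compound for 48 hours at five concentrations. GI50: concentration for 50% inhibition of growth. TGI: total growth inhibition.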

Columns and labels:
Test in all cases: NCI-60 cell line screen, 48 h
LOX IMVI melanoma = tested on: LOX IMVI melanoma
SK-OV-3 ovarian = tested on: SK-OV-3 ovarian
UO-31 renal = tested on: UO-31 renal
U251 CNS = tested on: U251 CNS
SF-268 CNS = tested on: SF-268 CNS
OVCAR-3 ovarian = tested on: OVCAR-3 ovarian
K-562 leukemia = tested on: K-562 leukemia
ACHN renal = tested on: ACHN renal
OVCAR-8 ovarian = tested on: OVCAR-8 ovarian
OVCAR-5 ovarian = tested on: OVCAR-5 ovarian
KM12 colon = tested on: KM12 colon
SF-295 CNS = tested on: SF-295 CNS
SR leukemia = tested on: SR leukemia

Structure (SMILES)	TGI (LOX IMVI melanoma) [µM]	TGI (SK-OV-3 ovarian) [µM]	TGI (UO-31 renal) [µM]	TGI (U251 CNS)	TGI (SF-268 CNS) [µM]	TGI (OVCAR-3 ovarian) [µM]	TGI (K-562 leukemia) [µM]	TGI (ACHN renal) [µM]	TGI (OVCAR-8 ovarian) [µM]	TGI (OVCAR-5 ovarian) [µM]	TGI (KM12 colon) [µM]	TGI (SF-295 CNS) [µM]	TGI (SR leukemia) [µM]	GI50 (LOX IMVI melanoma)	GI50 (U251 CNS)	GI50 (SF-268 CNS) [µM]	GI50 (K-562 leukemia) [µM]	GI50 (OVCAR-8 ovarian) [µM]	GI50 (SF-295 CNS) [µM]
CC(=O)NC(CCCCNC(=O)N(C)N=O)C(=O)NCc1ccccc1 (stereo unspecified)	> 100	> 100	> 100	> 100 µM	> 100	> 100	> 100	> 100	> 100	> 100	> 100	> 100							
CCCCCCCC/C=C/CCCCCCCC1CC(O)C(=O)O1 (stereo unspecified)	> 100	> 100	> 100	> 100 µM	> 100	95.7	> 100	> 100	> 100	> 100		> 100	> 100						
COc1cc([C@@H]2c3cc4c(c(O)c3C[C@H]3COC(=O)[C@@H]32)OCO4)cc(OC)c1O	> 200		> 77.7	0.00608 µM and < 0.02 µM	> 200		> 50.2		> 200	> 200	> 200	< 0.02		0.00394 µM and 0.0367 µM	0.00228 µM and < 0.02 µM	0.0043	0.00312	0.0053	0.00304
C[C@@H]1OC(=O)/C(=C\N(C)C)[C@H]2CC(=O)N(CCc3cn(S(=O)(=O)C(F)(F)F)c4ccccc34)C[C@H]12	> 100	> 100	> 100	> 100 µM	> 100	> 100	> 100	> 100		> 100	> 100	> 100							
CC(=O)OCc1cn(S(=O)(=O)c2ccc(C)cc2)cn1	> 100	> 100	> 100	> 100 µM	97.5	85.9	> 100	> 100	> 100			> 100	> 100						
O=C(N/C(=C\c1ccccc1)C1Nc2ccccc2C(=O)O1)c1ccccc1 (stereo unspecified)	36.1	> 100	44.2	51.2 µM	> 100	96.7	51.9	> 100	51.1	> 100	31.2	> 100							
CC(=O)Nc1ccc(-c2nc3ccccc3s2)cc1O	> 100		> 100	> 100 µM	> 100	> 100	> 100	> 100	> 100	93.8	73	> 100	> 100						
[N-]=[N+]=NC1=C(c2ccccc2)C(=O)c2cccc3cccc1c23	> 100	> 100	> 100	> 100 µM	> 100	> 100	> 100			> 100	> 100	26.5	> 100						
NC(CCCCNC(=O)C(Cc1ccccc1)NC(=O)OCc1ccccc1)C(=O)NC(CCCCNC(=O)C(Cc1ccccc1)NC(=O)OCc1ccccc1)C(=O)NC(CCCCNC(=O)C(Cc1ccccc1)NC(=O)OCc1ccccc1)C(=O)NC(CCCCNC(=O)C(Cc1ccccc1)NC(=O)OCc1ccccc1)C(=O)NC(CCCCNC(=O)C(Cc1ccccc1)NC(=O)OCc1ccccc1)C(=O)NC(CCCCNC(=O)C(Cc1ccccc1)NC(=O)OCc1ccccc1)C(=O)O (stereo unspecified)	> 100		> 100	> 100 µM	> 100	> 100	> 100	> 100	> 100	> 100			> 100						
CSc1ccc2c(cc1=O)[C@@H](NC(=O)c1ccc(F)cc1)CCc1cc(O)c(O)c(O)c1-2	> 100	> 100	> 100	> 100 µM	> 100	> 100	> 100	> 100	> 100	> 100	> 100	> 100							
CCN(CC)c1nc(N(C)C)c2cc(OC)ccc2n1	> 100		> 100	> 100 µM	91.8	> 100	> 100	> 100	> 100	> 100	> 100	> 100	76.9						
CP(C)(=S)P(C)(C)=S	> 100	> 100	> 100	> 100 µM	> 100		> 100	> 100	> 100	> 100		> 100	> 100						
CC1=NN(C(=O)Cc2ccccc2)C(=O)/C1=C\c1ccco1	> 100		> 100		> 100	> 100	> 100	> 100	> 100	> 100	> 100	> 100	> 100						
c1ccc2c(c1)C(=Nc1ccc(N=C3c4ccccc4-c4ccccc43)cc1)c1ccccc1-2	> 100	> 100	> 100	> 100 µM	> 100	> 100	> 100		> 100	> 100	> 100	> 100							
CC[C@@]1(O)C(=O)OCc2c1cc1n(c2=O)Cc2c-1nc1ccccc1c2/C=N\NC(=O)C(C)N (stereo partly specified)	0.229		2.12	31.6 µM	> 100	> 100			5.26	> 100	> 100	8.14	0.119						
N#Cc1c2nc3ccccc3nc2n2ccc3ccccc3c12		> 100	> 100	> 100 µM	> 100	> 100	> 100	> 100	> 100	> 100	> 100	> 100							
CC(C)=CCC[C@H](C)[C@H]1CC[C@@H](C)c2cc(O)c(C)cc21	32	35.4	28.2	31.1 µM	31.2	35.3	46.8	30.6	35.6	30.7	37.5	32.2							
COc1cccc(-n2c(N)c(-c3nc4cc(C(F)(F)F)ccc4s3)c3ccc([N+](=O)[O-])cc3c2=O)c1		> 100	> 100	> 100 µM	> 100	> 100	> 100	> 100		> 100	> 100	> 100							
